In one assay the test system is mouse. The assay is described as follows: Mouse bone formation assay, micro-CT examination of test vs control animals. It counts as in vivo. The conditions noted are these: predetermined dose for a complete dosing schedule, vs control solution. The text has this:
Compounds useful in the methods of the present invention can be identified via a variety of methods known to one of skill in the art. Several exemplary methods for identifying such antagonists are described herein, including cell-based and in vitro techniques (Journal of Bone and Mineral Research 2006, 21(11), 1738-1749). A general method of identifying SOST antagonists involves evaluating the effects of antagonist candidates on bone formation under controlled conditions. Preferably bone formation is determined using micro-CT techniques on live animals. Preferred animals include rodents, more preferred are primates. Femur, tibia and vertebrae bones are particularly useful subjects for such study.
Briefly, the test animal is treated with a predetermined dose of a SOST antagonist candidate. […]
Once the dosing schedule has been completed, both test and control animals are examined to determine the quantity of bone formation present. […] Where necessary, levels of bone formation can be calculated by determining the volume of bone formation present in each animal. […]
For example, the mouse test animal is treated with a predetermined dose of a SOST antagonist candidate for a complete dosing schedule. […] Once the dosing schedule has been completed, both test and control animals are examined with sacrifice using micro-CT to determine the quantity of bone formation present.

In the next assay the test system is Wnt pathway. The assay is described as follows: Wnt pathway modulation to promote bone growth (FIG. 1). The settings on record: doses of 2.5 ng (low), 60 ng (medium), 125 ng (high) and 1250 ng (very high). Here is the method:
For example, the mouse test animal is treated with a predetermined dose of a SOST antagonist candidate for a complete dosing schedule. A control mouse is treated with a control solution, preferably a non-irritating buffer solution or other carrier. Once the dosing schedule has been completed, both test and control animals are examined with sacrifice using micro-CT to determine the quantity of bone formation present.

For the next assay, the system named is C57BL/6 mice. Kind of assay: Bone growth with indoprofen: pQCT analysis on the femur after 30 days of daily treatment. It counts as in vivo, mouse. The settings on record: four month old male C57BL/6 mice, 2 mg/kg i.p. daily for 30 days, FIG. 2. Here is the method: Four month old male C57BL/6 mice were treated daily with saline vehicle or the sclerostin inhibitor of indoprofen at 2 mg/kg (via i.p) for 30 days. Study endpoints included measurement of trabecular bone mineral content and bone mineral density by pQCT analysis on the femur.

The structures appear in SMILES notation.

For `CC(C(=O)O)c1ccc(N2Cc3ccccc3C2=O)cc1` (stereo not shown) [indoprofen], the “promotion of bone growth (quantity of bone formation by micro-CT)” value with mouse was “promoting bone growth”. For the same compound, in the assay on Wnt pathway, the “modulation of the Wnt pathway to promote bone growth” value was “modulating the Wnt pathway to promote bone growth”. Further, the “increase for trabecular bone mineral density (BMD)” value in the assay on C57BL/6 mice (pQCT on femur) was “greater than 2%”. Besides, the “increase in bone mineral content (BMC) for the femur over baseline controls” value with C57BL/6 mice (pQCT) is “greater than 6%”.

Source of the values: patent US20100040628A1 (OsteoGeneX, Inc, priority 2008, published 2010).
